Measurements: publication PMC4581252, “Permeability Study of Polyphenols Derived from a Phenolic-Enriched Hibiscus sabdariffa Extract by UHPLC-ESI-UHR-Qq-TOF-MS” (International Journal of Molecular Sciences, 2015)

Experiments:
Format in all cases: in vitro ADME, human
[1] = system: Caco-2 cell monolayer; assay: Caco-2 permeation of pure compounds related to PEHS (individual permeability assays); details: for Concentration in the receptor chamber, Basolateral-Apical Flux: 30 min (so in the source); for Concentration in the receptor chamber, Basolateral-Apical Flux / Concentration in the receptor chamber, Apical-Basolateral Flux: donor: quercetin 18.1, quercetin-3-glucoside 46.4, quercetin-3-glucuronide 47.8, N-feruloyltyramine 31.3 μg/mL, X ± SD; for Absorption across the Caco-2 intestinal barrier model (in words): pure compounds
Method: Standard calibration curves of the compounds under study were prepared using apigenin at a concentration of 10 μg/mL as an internal standard. […] The limits of detection (LODs) and limits of quantification (LOQs) for individual compounds in standard solutions were also calculated as S/N = 3 and S/N = 10, respectively, where S/N is the signal to noise ratio (Table 3). The compound concentrations were subsequently determined using the corrected area of each individual compound (three replicates) and by interpolation in the corresponding calibration curve. Repeatability of the proposed method was measured as the relative standard deviation (RSD, %) in terms of concentration. A mixed solution containing the analytes was injected several times (n = 3) on the same day (intraday precision) and three times on three consecutive days (interday precision, n = 9). Intraday repeatability of the method developed for all the analytes was from 0.11% to 1.93%, whereas the interday repeatability ranged from 0.17% to 2.06%.
(§1) To assess the potential intestinal absorption of PEHS and pure compounds, experiments were conducted using Caco-2 cells derived from human colorectal adenocarcinoma cells (obtained from the American Type Culture Collection). Cells were cultured in Dulbecco’s Modified Eagle Medium (DMEM) containing 10% (v/v) fetal bovine serum (FBS) and incubated at 37 °C in a humidified 5% CO2 air atmosphere. Cell monolayers were prepared by seeding 5 × 10^5 Caco-2cells/well on a six-well Transwell insert filter. Monolayers were used 19–22 days after seeding. The integrity of each cell monolayer was checked by measuring its transepithelial electrical resistance (TEER) with an epithelial voltohmmeter (EVOM, World Precision Instrument, Sarasota, FL, USA) before and after the experiments. The culture medium was replaced with fresh medium 24 h before the transport experiments. Compounds were added after washing the Caco-2 cell monolayer twice with pre-warmed HBSS medium (pH 7.4), in the apical or in the basolateral side, to evaluate the transport characteristics of the cells. Permeability studies were done by adding the PEHS solution at a concentration of 2500 μg/mL, quercetin at 18.1 μg/mL, quercetin-3-glucoside at 46.4 μg/mL, quercetin-3-glucuronide at 47.8 μg/mL, and N-feruloyltyramine at 31.3 μg/mL, while the receiving chamber contained the corresponding volume of transport medium. Samples were taken at different times (30, 60, 90, 120 min) and stored at −80 °C until their treatment.
(§2) After the permeation study, the Caco-2 cell monolayer was collected and the cells were lysed with three subsequent freezing-thawing cycles followed by bath sonication, of 10 min each step. Then, the samples were centrifuged during 15 min at 14,000 rpm and 4 °C, and the supernatants (cytoplasmic fraction) and the pellets (membranes) were stored at −80 °C.
The samples collected in the receiving chamber during the permeability assays were centrifuged for 15 min at 12,000 rpm and 4 °C. The supernatant was spiked with apigenin stock solution, used as an internal standard at a concentration of 10 μg/mL, in order to avoid irreproducibility of results between analyses. Finally, the samples were stored at −80 °C until the analysis, avoiding possible degradations.
(§3) The cytoplasms and cell membranes collected at the end of the permeability assays were subjected to protein precipitation using methanol, vortex-mixed, kept at −20 °C for 2 h and centrifuged at 12,000 rpm for 15 min at 4 °C. Finally, the supernatants were evaporated in a vacuum concentrator, dissolved in 100 μL of methanol, and then spiked with 10 μg/mL of apigenin, used as an internal standard for their analysis.
For the analysis of the samples, a Dionex Ultimate 3000 UHPLC (Thermo Scientific, Sunnyvale, CA, USA) was used coupled with an ultra-high resolution quadrupole time-of-flight mass spectrometer maXis (UHR-Qq-TOF-MS) from Bruker Daltonik (Bremen, Germany). […]

[2] = system: Caco-2 cell monolayer; assay: Caco-2 permeability of encapsulated (liposome) PEHS extract: compounds detected in transport medium, cytoplasm and membrane; details: encapsulated PEHS 2500 μg/mL; for Compound detected in transport medium, Bas-Ap / Compound detected in transport medium, Ap-Bas: receiver chamber
Excerpt: (§4) One of the aims of this study was to compare the intestinal absorption of HS compounds when the PEHS extract was in a free form or in an encapsulated formulation, using the Caco-2 model system. This model is a well-established in vitro model for the investigation of the intestinal permeability of different compounds or drugs. Prior to the transport studies, the Caco-2 cell monolayer was established and validated. Monolayer integrity and reliability were ensured by measuring the transepithelial electrical resistance (TEER) values, which remained stable during the assay with the experimental conditions assayed. Afterwards, samples from apical and basolateral compartments obtained at different time points and cytoplasmic and membrane fractions of the cell monolayer collected at the end of the assay (see Section 3.3 and Section 3.4) were analyzed by UHPLC-ESI-UHR-Qq-TOF-MS in order to identify which compounds crossed the Caco-2 cell monolayer.
Primary aqueous extract was obtained from sun-dried calyces from plants harvested in Senegal, with an approximate plant-to-extract ratio of 5:1 as previously described. The purified PEHS extract was kindly provided by Monteloeder, Inc. (Elche, Alicante, Spain) and was essentially prepared as previously described. The retained phenolic fraction was finally eluted with 95% ethanol and 0.01% trifluoroacetic acid (TFA), rotatory evaporated and freeze-dried. The PEHS encapsulated formulation was performed using empty liposomes, whose final concentration was 2 mM, adding soy phosphatidylcholine to the blend. To permeabilize the liposome membrane ethanol 10% was used. The extract was dissolved in HBSS at the desired concentration (2500 μg/mL), stirred for 10 min, and finally filtered through 0.45 μm three times (PVD filter).
as §1, §2
(§5) The samples collected in the receiving chamber during the permeability assays were centrifuged for 15 min at 12,000 rpm and 4 °C. […] Finally, the samples were stored at −80 °C until the analysis, avoiding possible degradations.

[3] = system: Caco-2 cell monolayer; assay: Caco-2 permeability of free PEHS extract: compounds detected in transport medium, cytoplasm and membrane; details: free PEHS 2500 μg/mL; for Compound detected in transport medium, Ap-Bas / Compound detected in transport medium, Bas-Ap: receiver chamber; for Compound detected in transport medium, Bas-Ap: basolateral to apical
Excerpt: as §4, §1, §2, §5, §3
For the analysis of the samples, a Dionex Ultimate 3000 UHPLC (Thermo Scientific, Sunnyvale, CA, USA) was used coupled with an ultra-high resolution quadrupole time-of-flight mass spectrometer maXis (UHR-Qq-TOF-MS) from Bruker Daltonik (Bremen, Germany). The chromatographic separation was performed in a Zorbax Eclipse Plus C-18 column (4.6 × 150 mm, 1.8 μm) at a flow rate of 0.3 mL/min using an injection volume of 5 μL.

[4] = cytoplasmic fraction at end of assay, apical to basolateral
[5] = membrane fraction at end of assay, apical to basolateral
[6] = membrane fraction at end of assay, basolateral to apical

Row | Concentration in the receptor chamber, Basolateral-Apical Flux [1] | Concentration in the receptor chamber, Apical-Basolateral Flux ([1]; 30 min) | Concentration in the receptor chamber, Apical-Basolateral Flux ([1]; 60 min) | Concentration in the receptor chamber, Apical-Basolateral Flux ([1]; 90 min) | Concentration in the receptor chamber, Apical-Basolateral Flux ([1]; 120 min) | Absorption across the Caco-2 intestinal barrier model (in words) [1] | Compound detected in cytoplasm, Ap-Bas [2, 4] | Compound detected in transport medium, Ap-Bas ([3]; apical to basolateral) | Compound detected in transport medium, Bas-Ap [3] | Compound detected in transport medium, Bas-Ap ([2]; basolateral to apical) | Compound | further results
1 | <LOQ | not detected | not detected | not detected | <LOQ | lesser extent |  |  |  |  | O=C(O)[C@H]1O[C@@H](Oc2c(-c3ccc(O)c(O)c3)oc3cc(O)cc(O)c3c2=O)[C@H](O)[C@@H](O)[C@@H]1O [Quercetin-3-glucuronide] | 
2 |  |  |  |  |  |  | + |  |  |  | COC(=O)C1OC(=O)CC1(O)C(=O)OC (stereo not drawn) [Hibiscus acid dimethylesther] | Compound detected in membrane, Ap-Bas [2, 5]: +; Compound detected in membrane, Bas-Ap [2, 6]: +
3 |  |  |  |  |  |  |  | + | + | + | O=C(/C=C/c1ccc(O)c(O)c1)O[C@@H]1CC(C(=O)O)=C[C@@H](O)[C@H]1O [5-O-caffeoylshikimic acid] | 
4 |  |  |  |  |  |  |  |  | + |  | O=C(/C=C/c1ccc(O)cc1)O[C@@H]1C[C@](O)(C(=O)O)C[C@@H](O)[C@H]1O [Coumaroylquinic acid] | Compound detected in membrane, Bas-Ap [2, 6]: +
5 | 1100 ± 400 ng/mL | 280 ± 20 ng/mL | 490 ± 30 ng/mL | 1330 ± 20 ng/mL | 1320 ± 10 ng/mL | significant absorption | + | + | + |  | O=c1c(O)c(-c2ccc(O)c(O)c2)oc2cc(O)cc(O)c12 [Quercetin] | Compound detected in cytoplasm, Ap-Bas [3, 4]: +; Compound detected in membrane, Ap-Bas [3, 5]: +; Time at which maximum permeation / maximum concentration was reached ([1]; both flux directions, sampling at 30, 60, 90, 120 min): 90 min; Final concentration in the basolateral-apical flux relative to the opposite flux ([1]; end of assay): around five-fold
6 |  |  |  |  |  |  | + |  | + | + | COC(=O)c1cc(O)c(O)c(OC(=O)c2cc(O)c(O)c(O)c2)c1 [Methyldigallate, Methyl digallate] | 
7 |  |  |  |  |  |  | + |  |  |  | O=C1C[C@](O)(C(=O)O)[C@@H](C(=O)O)O1 [Hibiscus acid] | 
8 | 1350 ± 40 ng/mL | 690 ± 20 ng/mL | 2300 ± 200 ng/mL | 4200 ± 500 ng/mL | 6600 ± 800 ng/mL | significant absorption |  | + | + | + | COc1cc(/C=C/C(=O)NCCc2ccc(O)cc2)ccc1O [N-feruloyltyramine] | Compound detected in transport medium, Ap-Bas ([2]; apical to basolateral): +
9 |  |  |  |  |  |  |  |  | + |  | Methylepigallocatechin | 
10 |  |  |  |  |  |  | + | + | + | + | O=C(/C=C/c1ccc(O)c(O)c1)O[C@H]1[C@H](O)C[C@](O)(C(=O)O)C[C@H]1O [Cryptochlorogenic acid] | Compound detected in cytoplasm, Bas-Ap ([2]; cytoplasmic fraction at end of assay, basolateral to apical): +; Compound detected in transport medium, Ap-Bas ([2]; apical to basolateral): +

Row | Compound | Concentration in the receptor chamber, Basolateral-Apical Flux [1] | Concentration in the receptor chamber, Apical-Basolateral Flux ([1]; 30 min) | Concentration in the receptor chamber, Apical-Basolateral Flux ([1]; 60 min) | Concentration in the receptor chamber, Apical-Basolateral Flux ([1]; 90 min) | Concentration in the receptor chamber, Apical-Basolateral Flux ([1]; 120 min) | Absorption across the Caco-2 intestinal barrier model (in words) [1] | Compound detected in cytoplasm, Ap-Bas [2, 4] | Compound detected in transport medium, Ap-Bas ([3]; apical to basolateral) | Compound detected in transport medium, Bas-Ap [3] | Compound detected in transport medium, Bas-Ap ([2]; basolateral to apical) | further results
11 | O=c1c(O[C@@H]2O[C@H](CO)[C@@H](O)[C@H](O)[C@H]2O)c(-c2ccc(O)c(O)c2)oc2cc(O)cc(O)c12 [Quercetin-3-glucoside] | <LOQ | <LOQ | <LOQ | <LOQ | 470 ± 30 ng/mL | lesser extent |  |  |  |  | 
